Where a name gives a salt, the structure may show the parent alone. Read-outs that look alike come from different tables or passages of the source.
Key:
[1] = system: extracted mouse vas deferens preparation; assay: Opioid activity test using an extracted mouse vas deferens preparation (suppression of electrically induced contractions); set-up: species or system male ddy mouse; details: electrical stimulus 0.1 Hz, 37° C.
Method: (§1) A male ddy mouse was used in this test. The vas deferens extracted from the animal was suspended in a Magnus tube filled with Krebes-Henseleit solution (NaCl 118 mM; KCl 4.7 mM; CaCl2 2.5 mM; KH2 PO4 1.1 mM; NaHCO3 25 mM; Glucose 11 mM) warmed to 37° C. and ventilated with 5% carbon dioxide and 95% oxygen. Electrical stimulus was performed at 0.1 Hz for 5.0 ms by means of ring-shaped platinum electrodes located above and below. Tissue contractions were recorded on a polygraph using an isometric transducer.
(§2) After adequately washing with nutrient solution and the contraction reaction stabilized, the μ agonist, naloxone, the δ agonist, NTI, or the κ agonist, norBNI, was added after which the test compound was again cumulatively added after roughly 20 minutes. The Ke value was calculated using the following calculation formula from the difference in the efficacies of both agonists.

δ receptor = target: T1, δ receptor (Mus musculus, UniProt P32300); set-up: species or system male ddy mouse
T1 construct: The vas deferens extracted from the animal was suspended in a Magnus tube; from tissue; host or cells: mouse (male ddy) vas deferens
T1 sequence (P32300 whole entry): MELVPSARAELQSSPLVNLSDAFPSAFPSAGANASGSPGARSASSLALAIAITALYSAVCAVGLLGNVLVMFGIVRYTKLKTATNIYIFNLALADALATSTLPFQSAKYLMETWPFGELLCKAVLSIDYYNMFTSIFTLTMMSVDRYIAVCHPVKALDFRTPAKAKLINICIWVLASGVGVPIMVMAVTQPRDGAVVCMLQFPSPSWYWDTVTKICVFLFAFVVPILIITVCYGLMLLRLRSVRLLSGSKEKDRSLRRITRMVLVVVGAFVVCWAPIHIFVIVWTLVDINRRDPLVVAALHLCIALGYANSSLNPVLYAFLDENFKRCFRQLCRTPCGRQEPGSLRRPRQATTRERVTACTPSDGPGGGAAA

[2] = Diuretic action (urine output for 5 hours after physiological saline loading in rats); format: in vivo, male Wistar rats; details: for ED (200% urine output) / ED (500% urine output): Rattus norvegicus, sc, 5 hours after saline 20 ml/kg p.o.; for ED (200% urine output): dose giving urine output of 200 (non-dosed group = 100); for ED (500% urine output): dose giving urine output of 500 (non-dosed group = 100)
Method: 7-8 week old male Wistar rats were used in this test after prohibiting from drinking water for 1 hour before the start of testing. After discharging any urine accumulated in the bladder by gently stimulating the lower abdomens of the animals, the drug was administered subcutaneously. After 30 minutes, the animals were then forcibly given 20 ml/kg of physiological saline orally. The animals were placed in metabolic cages immediately after administration of the drug (2 animals/cage) and urine output for 5 hours after loading with physiological saline was measured. Drug efficacy was expressed in the form of those doses resulting in urine outputs of 200 and 500, respectively, when the urine output of a non-dosed group was taken to be 100. Those doses were expressed as the ED200 and ED500 values, respectively.

[3] = system: acetic acid-induced writhing in ddy mice; assay: animal or person; format: in vivo, 5 week old ddy mice; details: for ED50: s.c. 15 minutes before acetic acid
Method: 5 week old ddy mice were used in this test. After intraperitoneal administration of 0.1 ml of 0.6% aqueous acetic acid per 10 g of body weight, the number of writhing reactions that occurred in 10 minutes starting 10 minutes after administration was evaluated for the indicator. The test drug was administered subcutaneously into the backs of the animals 15 minutes before administration of acetic acid.

κ receptor = target: T2, κ receptor (Mus musculus, UniProt P33534); assay: Opioid activity test using an extracted mouse vas deferens preparation, Ke with norBNI; set-up: species or system male ddy mouse; details: for receptor selectivity of agonist (κ): in words; for Ke, norBNI: κ, norBNI added
T2 construct: from tissue; host or cells: mouse (male ddy) vas deferens
T2 sequence (P33534 whole entry): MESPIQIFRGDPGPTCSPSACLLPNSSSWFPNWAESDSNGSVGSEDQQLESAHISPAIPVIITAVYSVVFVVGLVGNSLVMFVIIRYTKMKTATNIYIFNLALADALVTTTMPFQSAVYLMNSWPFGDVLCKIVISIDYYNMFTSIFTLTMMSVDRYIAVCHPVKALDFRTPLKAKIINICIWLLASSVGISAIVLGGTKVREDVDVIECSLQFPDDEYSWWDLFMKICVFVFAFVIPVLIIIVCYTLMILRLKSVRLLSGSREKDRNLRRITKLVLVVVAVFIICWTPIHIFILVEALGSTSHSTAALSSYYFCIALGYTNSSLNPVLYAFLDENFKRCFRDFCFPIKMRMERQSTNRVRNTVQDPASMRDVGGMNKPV
Method: as §1, §2
(§3) Ke=[Conc. of added agonist]/(IC50 ratio-1)
(§4) IC50 ratio=IC50 in the presence of agonist/IC50 in the absence of agonist

μ receptor = target: T3, μ receptor (Mus musculus, UniProt P42866); assay: Opioid activity test using an extracted mouse vas deferens preparation, Ke with naloxone; set-up: species or system male ddy mouse; details: naloxone added
T3 construct: naloxone as mu antagonist (printed 'agonist')
T3 sequence (P42866 whole entry): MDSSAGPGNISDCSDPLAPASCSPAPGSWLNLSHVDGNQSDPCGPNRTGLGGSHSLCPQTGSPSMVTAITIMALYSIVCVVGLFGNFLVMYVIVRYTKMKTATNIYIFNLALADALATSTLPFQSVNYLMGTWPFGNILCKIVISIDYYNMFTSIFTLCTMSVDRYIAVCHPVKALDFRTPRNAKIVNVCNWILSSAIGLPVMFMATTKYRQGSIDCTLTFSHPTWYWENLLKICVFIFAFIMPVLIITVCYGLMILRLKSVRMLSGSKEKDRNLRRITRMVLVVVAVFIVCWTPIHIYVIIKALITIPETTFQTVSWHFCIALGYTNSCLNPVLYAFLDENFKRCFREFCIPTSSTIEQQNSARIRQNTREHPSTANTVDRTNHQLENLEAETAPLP
Method: as §1, §2, §3, §4

[4] = mouse vas deferens, δ, NTI added
[5] = Mus musculus, sc, read-out: ED50

| SMILES | IC50 [1] | Ke, NTI (δ receptor; [4]) | ED (200% urine output) [2] | ED (500% urine output) [2] | ED50 [3, 5] | receptor selectivity of agonist (κ) (κ receptor) | Ke, norBNI (κ receptor) | Ke, Naloxone (μ receptor) | receptor selectivity of agonist (δ) (δ receptor; mouse vas deferens, in words) | Ke, NTI (δ receptor) | Diuretic action (in words) ([2]; s.c., from ED200 values) | ED50 [3] | analgesic activity ([3]; s.c., in words) |
| --- | --- | --- | --- | --- | --- | --- | --- | --- | --- | --- | --- | --- | --- |
| CCCCCC(=O)N(C)[C@@H]1CC[C@@]2(O)[C@H]3Cc4ccc(O)c5c4[C@@]2(CCN3CC2CC2)[C@H]1O5 [Compound 62, 17-cyclopropylmethyl-3,14β-dihydroxy-4,5α-epoxy-6β-(N-methylhexanamido)morphinan.cndot.tartrate] | 14.7 nM | 90.2 nM | 0.101 mg/kg | 7.04 mg/kg | 0.077 mg/kg | selective agonists for κ receptors | 0.203 nM | – | – | – | – | – | – |
| CN(C(=O)/C=C/c1ccc(C(F)(F)F)cc1)[C@@H]1CC[C@@]2(O)[C@H]3Cc4ccc(O)c5c4[C@@]2(CCN3CC2CC2)[C@H]1O5 [Compound 73, 17-cyclopropylmethyl-3,14β-dihydroxy-4,5α-epoxy-6β-(N-methyl-4-trifluoromethylcinnamamido)morphinan.cndot.tartrate] | 0.072 nM | 78 nM | – | – | 0.023 mg/kg | selective agonists for κ receptors | 0.272 nM | 524 nM | – | – | – | – | – |
| CN(C(=O)/C=C/c1ccsc1)[C@H]1CC[C@@]2(O)[C@H]3Cc4ccc(O)c5c4[C@@]2(CCN3CC2CC2)[C@H]1O5 [Compound 91, 17-cyclopropylmethyl-3,14β-dihydroxy-4,5α-epoxy-6α-[N-methyl-trans-3-(3-thienyl)acrylamido]morphinan.cndot.tartrate] | 0.378 nM | 450 nM | 0.0094 mg/kg | 0.96 mg/kg | 0.019 mg/kg | selective agonists for κ receptors | 0.699 nM | – | – | – | – | – | – |
| CN(C(=O)/C=C/c1cccc(F)c1)[C@@H]1CC[C@@]2(O)[C@H]3Cc4ccc(O)c5c4[C@@]2(CCN3CC2CC2)[C@H]1O5 [Compound 102, 17-cyclopropylmethyl-3,14β-dihydroxy-4,5α-epoxy-6β-(N-methyl-3-fluorocinnamamido)morphinan.cndot.tartrate] | 1.6 nM | 276 nM | 0.0014 mg/kg | 0.0154 mg/kg | 0.0019 mg/kg | selective agonists for κ receptors | 2.37 nM | – | – | – | – | – | – |
| CN(C(=O)CC(=O)c1ccccc1)[C@@H]1CC[C@@]2(O)[C@H]3Cc4ccc(O)c5c4[C@@]2(CCN3CC2CC2)[C@H]1O5 [Compound 103, 17-cyclopropylmethyl-3,14β-dihydroxy-4,5α-epoxy-6β-(N-methylbenzoylacetamido)morphinan.cndot.tartrate] | 11 nM | – | 0.0827 mg/kg | 5.65 mg/kg | 0.069 mg/kg | selective agonists for κ receptors | 0.657 nM | – | – | – | – | – | – |
| C=CCN1CC[C@]23c4c5ccc(O)c4O[C@H]2[C@@H](N(C)C(=O)Cc2ccc(Cl)c(Cl)c2)CC[C@@]3(O)[C@H]1C5 [Compound 122, 17-allyl-3,14β-dihydroxy-4,5α-epoxy-6α-(N-methyl-3,4-dichlorophenylacetamido)morphinan.cndot.hydrochloride] | 3.01 nM | 42.7 nM | – | – | 0.34 mg/kg | selective agonists for κ receptors | 0.358 nM | 59.5 nM | – | – | – | – | – |
| CN(C(=O)C#Cc1ccc(C(F)(F)F)cc1)[C@H]1CC[C@@]2(O)[C@H]3Cc4ccc(O)c5c4[C@@]2(CCN3CC2CC2)[C@H]1O5 [Compound 126, 17-Cyclopropylmethyl-3,14β-dihydroxy-4,5α-epoxy-6α-[N-methyl-3-(4-trifluoromethylphenyl)propiolamido]morphinan.cndot.0.5 tartrate] | 0.969 nM | 0.0065 nM | – | – | – | – | 1.20 nM | 40.2 nM | selective agonists for δ receptors | – | – | – | – |
| CN(C(=O)/C=C/c1cccc(Br)c1)[C@@H]1CC[C@@]2(O)[C@H]3Cc4ccc(O)c5c4[C@@]2(CCN3CC2CC2)[C@H]1O5 [Compound 151, 17-cyclopropylmethyl-3,14β-dihydroxy-4,5α-epoxy-6β-(N-methyl-3-bromocinnamamido)morphinan hydrobromide] | – | – | 0.00445 mg/kg | 1.56 mg/kg | 0.0041 mg/kg | selective agonists for κ receptors | 0.028 nM | 0.94 nM | – | 1.65 nM | – | – | – |
| CN(C(=O)/C=C/c1ccc(Cl)cc1)[C@@H]1CC[C@@]2(O)[C@H]3Cc4ccc(O)c5c4[C@@]2(CCN3CC2CC2)[C@H]1O5 [Compound 152, 17-cyclopropylmethyl-3,14β-dihydroxy-4,5α-epoxy-6β-(N-methyl-4-chlorocinnamamido)morphinan hydrochloride] | – | – | 0.00071 mg/kg | 0.00953 mg/kg | – | selective agonists for κ receptors | 0.039 nM | 17.5 nM | – | 35.1 nM | extremely strong diuretic action | 0.0038 mg/kg | – |
| CN(C(=O)/C=C/c1cccc(Cl)c1)[C@@H]1CC[C@@]2(O)[C@H]3Cc4ccc(O)c5c4[C@@]2(CCN3CC2CC2)[C@H]1O5 [Compound 154, 17-cyclopropylmethyl-3,14β-dihydroxy-4,5α-epoxy-6β-(N-methyl-3-chlorocinnamamido)morphinan hydrochloride] | – | – | 0.00214 mg/kg | 0.27 mg/kg | 0.001 mg/kg | selective agonists for κ receptors | 0.133 nM | 43.1 nM | – | 31.5 nM | – | – | particularly strong analgesic activity |
| CC(C)CN(C(=O)/C=C/c1cccc(C(F)(F)F)c1)[C@@H]1CC[C@@]2(O)[C@H]3Cc4ccc(O)c5c4[C@@]2(CCN3CC2CC2)[C@H]1O5 [Compound 166, 17-cyclopropylmethyl-3,14β-dihydroxy-4,5α-epoxy-6β-(N-isobutyl-3-trifluoromethylcinnamamido)morphinan 0.5 tartrate] | 0.028 nM | 20.5 nM | – | – | – | – | 4.78 nM | 36.9 nM | – | – | – | – | – |
| Cc1cccc(C#CC(=O)N(C)[C@@H]2CC[C@@]3(O)[C@H]4Cc5ccc(O)c6c5[C@@]3(CCN4CC3CC3)[C@H]2O6)c1.Cl [Compound 172, 17-cyclopropylmethyl-3,14β-dihydroxy-4,5α-epoxy-6β-[N-methyl-3-(3-methylphenyl)propiolamido]morphinan hydrochloride] | – | 17.57 nM | 0.00323 mg/kg | 3.03 mg/kg | 0.0079 mg/kg | selective agonists for κ receptors | 0.163 nM | 16.16 nM | – | – | – | – | – |
